Laboratory results taken from patent publication US10590123B2, “Pesticidally active amide heterocyclic derivatives with sulphur containing substituents” (SYNGENTA PARTICIPATIONS AG, priority 2014, dated 2020).

Legend:
Format in all cases: in vivo
[1] = tested on: Bemisia tabaci (Cotton White Fly); test: Example B6: Activity against Bemisia tabaci, sprayed cotton leaf discs; details: foliar, 144 h, application rate 200 ppm, adult white flies, 6 days after incubation
Procedure: Example B6: Activity Against Bemisia tabaci (Cotton White Fly)
Cotton leaf discs were placed on agar in 24-well microtiter plates and sprayed with aqueous test solutions prepared from 10′000 ppm DMSO stock solutions. After drying the leaf discs were infested with adult white flies. The samples were checked for mortality 6 days after incubation.

[2] = tested on: Euschistus heros (Neotropical Brown Stink Bug); test: Example B7: Activity against Euschistus heros, sprayed soybean leaf; details: 120 h, application rate 200 ppm, N-2 nymphs, 5 days after infestation
Procedure: Example B7: Activity Against Euschistus heros (Neotropical Brown Stink Bug)
Soybean leaf on agar in 24-well microtiter plates were sprayed with aqueous test solutions prepared from 10′000 ppm DMSO stock solutions. After drying the leaf were infested with N-2 nymphs. The samples were assessed for mortality 5 days after infestation.

[3] = tested on: Plutella xylostella (Diamond Back Moth); test: Example B3: Activity against Plutella xylostella, artificial diet; details: 120 h, application rate 200 ppm, L2 larvae, 5 days after infestation, read-out: effect in at least one of the two categories (mortality or growth inhibition)
Procedure: Example B3: Activity Against Plutella xylostella (Diamond Back Moth)
(§1) 24-well microtiter plates with artificial diet were treated with aqueous test solutions prepared from 10′000 ppm DMSO stock solutions by pipetting. After drying, the plates were infested with L2 larvae (10 to 15 per well). The samples were assessed for mortality and growth inhibition in comparison to untreated samples 5 days after infestation.

[4] = tested on: Frankliniella occidentalis (Western Flower Thrips); test: Example B5: Activity against Frankliniella occidentalis, sprayed sunflower leaf discs; details: foliar, 168 h, application rate 200 ppm, population of mixed ages, 7 days after infestation
Procedure: Example B5: Activity Against Frankliniella occidentalis (Western Flower Thrips)
(§2) Sunflower leaf discs were placed on agar in 24-well microtiter plates and sprayed with aqueous test solutions prepared from 10′000 ppm DMSO stock solutions. After drying the leaf discs were infested with a Frankliniella population of mixed ages. The samples were assessed for mortality 7 days after infestation.

[5] = tested on: Spodoptera littoralis (Egyptian Cotton Leaf Worm); test: Example B1: Activity against Spodoptera littoralis, sprayed cotton leaf discs; details: foliar, 72 h, application rate 200 ppm, L1 larvae, 3 days after infestation, read-out: control in at least one of the three categories (mortality, anti-feedancy or growth inhibition)
Summary of the method: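 Cotton leaf discs on agar were sprayed with aqueous dilutions of 10′000 ppm DMSO stocks, dried, and infested with five L1 larvae. Mortality, anti-feedant effect and growth inhibition were scored 3 days after infestation against untreated discs. Control means at least one of these exceeds the untreated sample.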

[6] = tested on: Diabrotica Balteata (Corn Root Worm); test: Example B4: Activity against Diabrotica balteata, sprayed maize sprouts; details: 96 h, application rate 200 ppm, L2 larvae, 4 days after infestation, read-out: effect in at least one of the two categories (mortality or growth inhibition)
Procedure: Example B4: Activity Against Diabrotica Balteata (Corn Root Worm)
as §1, with “Maize sprouts, placed on an agar layer in 24-well” for “24-well”, “plates” for “plates with artificial diet”, “spraying.” for “pipetting.”, “(6” for “(10”, “10” for “15”, “4” for “5”

[7] = tested on: Thrips tabaci (Onion Thrips); test: Example B11: Activity against Thrips tabaci, sprayed sunflower leaf discs; details: foliar, 144 h, application rate 200 ppm, thrips population of mixed ages, 6 days after infestation
Procedure: Example B11: Activity Against Thrips tabaci (Onion Thrips)
as §2, with “thrips” for “Frankliniella”, “6” for “7”

[8] = tested on: Spodoptera littoralis (Egyptian Cotton Leaf Worm); test: Example B2: Activity against Spodoptera littoralis, systemic via lettuce roots in agar; details: 144 h, application rate 12.5 ppm, 6 days after infestation, read-out: control in at least one of the three categories (mortality, anti-feedancy or growth inhibition)
Excerpt: Example B2: Activity Against Spodoptera littoralis (Egyptian Cotton Leaf Worm)
Test compounds were applied by pipette from 10′000 ppm DMSO stock solutions into 24-well plates and mixed with agar. Lettuce seeds were placed on the agar and the multi well plate was closed by another plate which contains also agar. After 7 days the roots have absorbed the compound and the lettuce has grown into the lid plate. The lettuce leafs were now cut off into the lid plate. Spodoptera eggs were pipetted through a plastic stencil on a humid gel blotting paper and the plate closed with it.
The samples were assessed for mortality, anti-feedant effect and growth inhibition in comparison to untreated samples 6 days after infestation.

[9] = tested on: Myzus persicae (Green Peach Aphid); test: Example B8: Activity against Myzus persicae, sprayed sunflower leaf discs; details: foliar, 144 h, application rate 200 ppm, aphid population of mixed ages, 6 days after infestation
Procedure: Example B8: Activity Against Myzus persicae (Green Peach Aphid)
Sunflower leaf discs were placed on agar in a 24-well microtiter plate and sprayed with aqueous test solutions prepared from 10′000 ppm DMSO stock solutions. After drying, the leaf discs were infested with an aphid population of mixed ages. The samples were assessed for mortality 6 days after infestation.

[10] = tested on: Tetranychus urticae (Two-Spotted Spider Mite); test: Example B12: Activity against Tetranychus urticae, sprayed bean leaf discs; details: foliar, 192 h, application rate 200 ppm, mixed population (mobile stages), 8 days after infestation
Procedure: Example B12: Activity Against Tetranychus urticae (Two-Spotted Spider Mite)
as §2, with “Bean” for “Sunflower”, “discs” for “discs were placed”, “were” for “and”, “mite” for “Frankliniella”, “on mixed population (mobile stages) 8” for “7”

[11] = tested on: Myzus persicae (Green Peach Aphid); test: Example B9: Activity against Myzus persicae, systemic via pea seedling roots; details: 144 h, test rate 24 ppm, pea seedling roots in test solution, 6 days
Procedure: Example B9: Activity Against Myzus persicae (Green Peach Aphid)
Roots of pea seedlings infested with an aphid population of mixed ages were placed directly in the aqueous test solutions prepared from 10′000 DMSO stock solutions. The samples were assessed for mortality 6 days after placing seedlings in test solutions.

CCS(=O)(=O)c1cc(C2(C#N)CC2)cnc1C(=O)N(C)c1nnc(C(F)(F)C(F)(F)F)s1 [Compound P20, 5-(1-cyanocyclopropyl)-3-ethylsulfonyl-N-methyl-N-[5-(1,1,2,2,2-pentafluoroethyl)-1,3,4-thiadiazol-2-yl]pyridine-2-carboxamide]
≥ 80%: mortality at 200 ppm [1] | mortality at 200 ppm [2] | percent effect (mortality or growth inhibition) at 200 ppm [3] | mortality at 200 ppm [4] | percent control (mortality, anti-feedant effect or growth inhibition) at 200 ppm [5] | percent effect (mortality or growth inhibition) at 200 ppm [6] | mortality at 200 ppm [7] | percent control (mortality, anti-feedant effect or growth inhibition) at 12.5 ppm [8] | mortality at 200 ppm [9]

CCS(=O)(=O)c1cc(-c2cc(F)ccc2F)cnc1C(=O)N(C)c1nnc(C(F)(F)F)s1 [Compound P33]
≥ 80%: mortality at 200 ppm [1] | mortality at 200 ppm [2] | percent effect (mortality or growth inhibition) at 200 ppm [3] | percent control (mortality, anti-feedant effect or growth inhibition) at 200 ppm [5] | mortality at 200 ppm [10] | percent effect (mortality or growth inhibition) at 200 ppm [6] | percent control (mortality, anti-feedant effect or growth inhibition) at 12.5 ppm [8] | mortality at 200 ppm [9]

CCS(=O)(=O)c1cc(-c2ccc(Cl)c(Cl)c2)cnc1C(=O)N(C)c1nnc(C(F)(F)F)s1 [Compound P36]
≥ 80%: mortality at 200 ppm [2] | percent effect (mortality or growth inhibition) at 200 ppm [3] | percent control (mortality, anti-feedant effect or growth inhibition) at 200 ppm [5] | mortality at 200 ppm [10] | percent effect (mortality or growth inhibition) at 200 ppm [6]

CCS(=O)(=O)c1cc(-c2cccc(Cl)n2)cnc1C(=O)N(C)c1nnc(C(F)(F)F)s1 [Compound P49]
≥ 80%: mortality at 200 ppm [2] | percent effect (mortality or growth inhibition) at 200 ppm [3] | percent control (mortality, anti-feedant effect or growth inhibition) at 200 ppm [5] | mortality at 200 ppm [10] | percent effect (mortality or growth inhibition) at 200 ppm [6]

CCS(=O)(=O)c1cc(-c2cncnc2)cnc1C(=O)N(C)c1nnc(C(F)(F)F)s1 [Compound P58]
≥ 80%: mortality at 24 ppm [11] | percent effect (mortality or growth inhibition) at 200 ppm [3] | mortality at 200 ppm [9]

CCS(=O)(=O)c1cc(-c2cc(C#N)ccn2)cnc1C(=O)N(C)c1nnc(C(F)(F)F)s1 [Compound P61]
≥ 80%: mortality at 200 ppm [1] | mortality at 200 ppm [2] | percent effect (mortality or growth inhibition) at 200 ppm [3] | percent control (mortality, anti-feedant effect or growth inhibition) at 200 ppm [5] | mortality at 200 ppm [10] | percent effect (mortality or growth inhibition) at 200 ppm [6] | percent control (mortality, anti-feedant effect or growth inhibition) at 12.5 ppm [8] | mortality at 200 ppm [9]
